# Test results published in patent US6372748B1, “Fungicide mixtures based on pyridine amides and fenarimol” (BASF Aktiengesellschaft, priority 1997, dated 2002).
# Test system: Puccinia recondita
# Experiment: Curative activity against Puccinia recondita on wheat (wheat leaf rust)
# Assay type: in vivo, Puccinia recondita on wheat seedlings of the variety Kanzler
# Conditions: sprayed 1 day after inoculation, rated after 7 days
# Method: The active ingredients, separately or together, are formulated as a 10% emulsion in a mixture of 63% by weight of cyclohexanone and 27% by weight of emulsifier, and diluted with water to the desired concentration.
# Evaluation is carried out by determining the infected leaf areas in percent. These percentages are converted into efficacies. The efficacy (w) is calculated as follows using Abbot's formula: […]
# α corresponds to the fungal infection of the treated plants in % and β corresponds to the fungal infection of the untreated (control) plants in % An efficacy of 0 means that the infection level of the treated plants corresponds to that of the untreated control plants; an efficacy of 100 means that the treated plants were not infected.
# The expected efficacies of the mixtures of the active ingredients were determined using Colby's formula [R. S. Colby, Weeds 15, 20-22 (1967)] and compared with the observed efficacies.
# Colby's formula: E=x+y−x·y/100
# E expected efficacy, expressed in % of the untreated control, when using the mixture of the active ingredients A and B at the concentrations a and b x efficacy, expressed in % of the untreated control, when using active ingredient A at a concentration of a y efficacy, expressed in % of the untreated control, when using active ingredient B at a concentration of b Leaves of potted wheat seedlings of the variety “Kanzler” were dusted with spores of leaf rust (Puccinia recondite). Thereafter, the pots were kept for 24 hours in a chamber of high atmospheric humidity (90 to 95%) and 20 to 22° C. During this time, the spores germinated and the germinal tubes penetrated into the leaf tissue. The next day, the infected plants were sprayed to runoff point with an aqeuous formulation of active ingredient prepared from a stock solution consisting of 10% of active ingredient, 63% of cyclohexanone and 27% of emulsifier. After the spray coating had dried on, the test plants were cultivated in a greenhouse at from 20 to 22° C. and from 65 to 70% of relative atmospheric humidity for 7 days. Thereafter, the extent of rust fungus development on the leaves was determined.
# [1] = 50 ppm active ingredient in the spray liquor
# [2] = 100 ppm active ingredient in the spray liquor
Structure (SMILES),Efficacy in % of the untreated control [1] [%],Efficacy in % of the untreated control [2] [%],Efficacy in % of the untreated control (10 ppm active ingredient in the spray liquor) [%],Efficacy in % of the untreated control (20 ppm active ingredient in the spray liquor) [%],Efficacy in % of the untreated control (200 ppm active ingredient in the spray liquor) [%]
O=C(Nc1ccccc1-c1ccc(Cl)cc1)c1cccnc1Cl [Compound I.2],0,30,,,
"OC(c1ccc(Cl)cc1)(c1cncnc1)c1ccccc1Cl (racemic) [Compound II, (±)-(2-Chlorophenyl)(4-chlorophenyl)(pyrimidin-5-yl)methanol, reference compound]",,,10,20,
O=C(Nc1ccccc1-c1ccc(F)cc1)c1cccnc1Cl [Compound I.1],0,0,,,0
